Test results reported in US7368578B2, “Five-membered heterocyclic compounds” (Takeda Pharmaceutical Company Limited, priority 2002, dated 2008).

melting point [°C] | Structure (SMILES)
158 to 159 | COc1cc(COc2nn(-c3ccccc3)cc2/C=C\S(C)(=O)=O)ccc1OCc1nc(-c2ccco2)oc1C [Example 131, 2-(2-furyl)-4-({2-methoxy-4-[({4-[(Z)-2-(methylsulfonyl)ethenyl]-1-phenyl-1H-pyrazol-3-yl}oxy)methyl]phenoxy}methyl)-5-methyl-1,3-oxazole]
146 to 147 | CCCc1nnc(/C=C/c2cn(Cc3ccccc3)nc2OCc2ccc(OCc3nc(-c4ccco4)oc3C)c(OC)c2)o1 [Example 132, 2-((E)-2-{1-benzyl-3-[(4-{[2-(2-furyl)-5-methyl-1,3-oxazol-4-yl]methoxy}-3-methoxybenzyl)oxy]-1H-pyrazol-4-yl}ethenyl)-5-propyl-1,3,4-oxadiazole]
119 to 120 | CCCc1nnc(/C=C/c2nc(-c3ccccc3)oc2COc2ccc(OCc3nc(-c4ccccc4)oc3C)cc2)o1 [Example 133, 2-{(E)-2-[5-({4-[(5-methyl-2-phenyl-1,3-oxazol-4-yl)methoxy]phenoxy}methyl)-2-phenyl-1,3-oxazol-4-yl]ethenyl}-5-propyl-1,3,4-oxadiazole]
127 to 128 | CCOC(=O)/C=C/c1cc(OCc2ccc(OCc3nc(-c4ccco4)oc3C)c(OC)c2)nn1-c1ccccc1 [Example 135, ethyl (2E)-3-{3-[(4-{[2-(2-furyl)-5-methyl-1,3-oxazol-4-yl]methoxy}-3-methoxybenzyl)oxy]-1-phenyl-1H-pyrazol-5-yl}-2-propenoate]
95 to 96 | COc1cc(COc2cc(Cn3cncn3)n(-c3ccccc3)n2)ccc1OCc1nc(-c2ccco2)oc1C [Example 143, 1-({3-[(4-{[2-(2-furyl)-5-methyl-1,3-oxazol-4-yl]methoxy}-3-methoxybenzyl)oxy]-1-phenyl-1H-pyrazol-5-yl}methyl)-1H-1,2,4-triazole]
164 to 165 | COc1cc(COc2nn(-c3ccccc3)cc2/C=C\c2csc(C)n2)ccc1OCc1nc(-c2ccco2)oc1C [Example 150 (Z form), 2-(2-furyl)-4-({2-methoxy-4-[({4-[(Z)-2-(2-methyl-1,3-thiazol-4-yl)ethenyl]-1-phenyl-1H-pyrazol-3-yl}oxy)methyl]phenoxy}methyl)-5-methyl-1,3-oxazole]
177 to 178 | COc1cc(COc2nn(-c3ccccc3)cc2/C=C/C(C)=O)ccc1OCc1nc(-c2ccco2)oc1C [Example 155, (3E)-4-{3-[(4-{[2-(2-furyl)-5-methyl-1,3-oxazol-4-yl]methoxy}-3-methoxybenzyl)oxy]-1-phenyl-1H-pyrazol-4-yl}-3-buten-2-one]
167 to 168 | CCCC(=O)/C=C/c1cn(-c2ccccc2)nc1OCc1ccc(OCc2nc(-c3ccco3)oc2C)c(OC)c1 [Example 157, (1E)-1-{3-[(4-{[2-(2-furyl)-5-methyl-1,3-oxazol-4-yl]methoxy}-3-methoxybenzyl)oxy]-1-phenyl-1H-pyrazol-4-yl}-1-hexen-3-one]
138 to 140 | COc1cc(COc2nn(-c3ccccc3)cc2/C=C/P(=O)(O)O)ccc1OCc1nc(-c2ccco2)oc1C [Example 158, (E)-2-{3-[(4-{[2-(2-furyl)-5-methyl-1,3-oxazol-4-yl]methoxy}-3-methoxybenzyl)oxy]-1-phenyl-1H-pyrazol-4-yl}ethenylphosphonic acid]
173 to 174 | COc1cc(COc2nn(-c3ccccc3)cc2/C=C/C(=O)N(C)OC)ccc1OCc1nc(-c2ccco2)oc1C [Example 162, (2E)-3-{3-[(4-{[2-(2-furyl)-5-methyl-1,3-oxazol-4-yl]methoxy}-3-methoxybenzyl)oxy]-1-phenyl-1H-pyrazol-4-yl}-N-methoxy-N-methyl-2-propenamide]
173 to 174 | COC(=O)c1cc(COc2nn(-c3ccccc3)cc2C=O)ccc1OCc1nc(-c2ccco2)oc1C [Example 163, methyl 5-{[(4-formyl-1-phenyl-1H-pyrazol-3-yl)oxy]methyl}-2-{[2-(2-furyl)-5-methyl-1,3-oxazol-4-yl]methoxy}benzoate]
122 to 123 | Cc1oc(-c2ccco2)nc1COc1ccc(COc2nn(-c3ccccc3)cc2C=O)cn1 [Example 164, 3-[(6-{[2-(2-furyl)-5-methyl-1,3-oxazol-4-yl]methoxy}pyridin-3-yl)methoxy]-1-phenyl-1H-pyrazole-4-carbaldehyde]
134 to 135 | COc1cc(COc2nn(C)cc2/C=C/c2cscn2)ccc1OCc1nc(-c2ccco2)oc1C [Example 167 (E form), 2-(2-furyl)-4-({2-methoxy-4-[({1-methyl-4-[(E)-2-(1,3-thiazol-4-yl)ethenyl]-1H-pyrazol-3-yl}oxy)methyl]phenoxy}methyl)-5-methyl-1,3-oxazole]
97 to 98 | COc1cc(COc2nn(C)cc2/C=C\c2cscn2)ccc1OCc1nc(-c2ccco2)oc1C [Example 167 (Z form), 2-(2-furyl)-4-({2-methoxy-4-[({1-methyl-4-[(Z)-2-(1,3-thiazol-4-yl)ethenyl]-1H-pyrazol-3-yl}oxy)methyl]phenoxy}methyl)-5-methyl-1,3-oxazole]

The remaining lines, values behind:

Structure (SMILES) | melting point [°C]
CCc1nnc(/C=C/c2cn(-c3ccccc3)nc2OCc2ccc(OCc3nc(-c4ccco4)oc3C)c(OC)c2)o1 [Example 126, 2-ethyl-5-((E)-2-{3-[(4-{[2-(2-furyl)-5-methyl-1,3-oxazol-4-yl]methoxy}-3-methoxybenzyl)oxy]-1-phenyl-1H-pyrazol-4-yl}ethenyl)-1,3,4-oxadiazole] | 183 to 184
CCCc1nnc(/C=C/c2cn(-c3ccccc3)nc2OCc2ccc(OCc3nc(-c4ccco4)oc3C)c(OC)c2)o1 [Example 127, 2-((E)-2-{3-[(4-{[2-(2-furyl)-5-methyl-1,3-oxazol-4-yl]methoxy}-3-methoxybenzyl)oxy]-1-phenyl-1H-pyrazol-4-yl}ethenyl)-5-propyl-1,3,4-oxadiazole] | 165 to 166
COc1cc(COc2nn(-c3ccccc3)cc2/C=C/[S+](C)[O-])ccc1OCc1nc(-c2ccco2)oc1C (stereo not shown) [Example 128 (E form), 2-(2-furyl)-4-({2-methoxy-4-[({4-[(E)-2-(methylsulfinyl)ethenyl]-1-phenyl-1H-pyrazol-3-yl}oxy)methyl]phenoxy}methyl)-5-methyl-1,3-oxazole] | 156 to 157
COc1cc(COc2nn(-c3ccccc3)cc2/C=C\[S+](C)[O-])ccc1OCc1nc(-c2ccco2)oc1C (stereo not shown) [Example 128 (Z form), 2-(2-furyl)-4-({2-methoxy-4-[({4-[(Z)-2-(methylsulfinyl)ethenyl]-1-phenyl-1H-pyrazol-3-yl}oxy)methyl]phenoxy}methyl)-5-methyl-1,3-oxazole] | 180 to 181
COc1cc(COc2nn(-c3ccccc3)cc2/C=C/S(C)(=O)=O)ccc1OCc1nc(-c2ccco2)oc1C [Example 130, 2-(2-furyl)-4-({2-methoxy-4-[({4-[(E)-2-(methylsulfonyl)ethenyl]-1-phenyl-1H-pyrazol-3-yl}oxy)methyl]phenoxy}methyl)-5-methyl-1,3-oxazole] | 152 to 153
COc1cc(COc2cc(/C=C/C(=O)O)n(-c3ccccc3)n2)ccc1OCc1nc(-c2ccco2)oc1C [Example 136, (2E)-3-{3-[(4-{[2-(2-furyl)-5-methyl-1,3-oxazol-4-yl]methoxy}-3-methoxybenzyl)oxy]-1-phenyl-1H-pyrazol-5-yl}-2-propenoic acid] | 191 to 192
CCCc1nnc(/C=C/c2cc(OCc3ccc(OCc4nc(-c5ccco5)oc4C)c(OC)c3)nn2-c2ccccc2)o1 [Example 138, 2-((E)-2-{3-[(4-{[2-(2-furyl)-5-methyl-1,3-oxazol-4-yl]methoxy}-3-methoxybenzyl)oxy]-1-phenyl-1H-pyrazol-5-yl}ethenyl)-5-propyl-1,3,4-oxadiazole] | 107 to 108
COc1cc(COc2cc(/C=C/c3cscn3)n(-c3ccccc3)n2)ccc1OCc1nc(-c2ccco2)oc1C [Example 139, 2-(2-furyl)-4-({2-methoxy-4-[({1-phenyl-5-[(E)-2-(1,3-thiazol-4-yl)ethenyl]-1H-pyrazol-3-yl}oxy)methyl]phenoxy}methyl)-5-methyl-1,3-oxazole] | 154 to 155
COc1cc(COc2cc(/C=C/c3ccccn3)n(-c3ccccc3)n2)ccc1OCc1nc(-c2ccco2)oc1C [Example 140, 2-((E)-2-{3-[(4-{[2-(2-furyl)-5-methyl-1,3-oxazol-4-yl]methoxy}-3-methoxybenzyl)oxy]-1-phenyl-1H-pyrazol-5-yl}ethenyl)pyridine] | 122 to 123
COc1cc(COc2cc(CCc3ccccn3)n(-c3ccccc3)n2)ccc1OCc1nc(-c2ccco2)oc1C [Example 141, 2-(2-{3-[(4-{[2-(2-furyl)-5-methyl-1,3-oxazol-4-yl]methoxy}-3-methoxybenzyl)oxy]-1-phenyl-1H-pyrazol-5-yl}ethyl)pyridine] | 104 to 105
CCc1nc(/C=C/c2cn(-c3ccccc3)nc2OCc2ccc(OCc3nc(-c4ccco4)oc3C)c(OC)c2)cs1 [Example 152 (E form), 4-({4-[({4-[(E)-2-(2-ethyl-1,3-thiazol-4-yl)ethenyl]-1-phenyl-1H-pyrazol-3-yl}oxy)methyl]-2-methoxyphenoxy}methyl)-2-(2-furyl)-5-methyl-1,3-oxazole] | 108 to 109
CCc1nc(/C=C\c2cn(-c3ccccc3)nc2OCc2ccc(OCc3nc(-c4ccco4)oc3C)c(OC)c2)cs1 [Example 152 (Z form), 4-({4-[({4-[(Z)-2-(2-ethyl-1,3-thiazol-4-yl)ethenyl]-1-phenyl-1H-pyrazol-3-yl}oxy)methyl]-2-methoxyphenoxy}methyl)-2-(2-furyl)-5-methyl-1,3-oxazole] | 132 to 133
CCOc1cc(COc2nn(-c3ccccc3)cc2C=O)ccc1OCc1nc(-c2ccco2)oc1C [Example 154, 3-[(3-ethoxy-4-{[2-(2-furyl)-5-methyl-1,3-oxazol-4-yl]methoxy}benzyl)oxy]-1-phenyl-1H-pyrazole-4-carbaldehyde] | 149 to 150
CCOC(=O)/C=C/c1cn(C)nc1OCc1ccc(OCc2nc(-c3ccco3)oc2C)c(OC)c1 [Example 165, ethyl (2E)-3-{3-[(4-([2-(2-furyl)-5-methyl-1,3-oxazol-4-yl]methoxy}-3-methoxybenzyl)oxy]-1-methyl-1H-pyrazol-4-yl)-2-propenoate] | 135 to 136
